Data as given in PubChem BioAssay AID1963962 (Molecular Pharmacology Branch, DTP, NCI, 2024).

Test system: 967376-340-R-J2-PDC multicell spheroid viability
Assay: Anticancer human tumor 967376-340-R-J2-PDC patient-derived colon adenocarcinoma cell line growth inhibition [PI3K]
Conditions: for IC50: curve of first compound; for viability, T/C: stronger effect = lower value; active means viability on the fitted dose curve at most 10% of control; inactive means the rest
Method in brief: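 Three cell types, namely tumor cells, endothelial cells and mesenchymal stem cells, formed each spheroid. Combinations with four PI3K inhibitors were screened at clinically achievable concentrations decreasing by half-log, and spheroid viability was recorded.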

[1] = second compound 0.0316 µM, first compound 0.0316 µM
[2] = second compound 0.0316 µM, first compound 0.1 µM
[3] = second compound 0.0316 µM, first compound 0.316 µM
[4] = second compound 0.0316 µM, first compound 1 µM
[5] = second compound 0.0316 µM, first compound 3.16 µM
[6] = second compound 0.0316 µM, first compound 10 µM
[7] = second compound 0.1 µM, first compound 0.0316 µM
[8] = second compound 0.1 µM, first compound 0.1 µM
[9] = second compound 0.1 µM, first compound 0.316 µM
[10] = second compound 0.1 µM, first compound 1 µM
[11] = second compound 0.1 µM, first compound 3.16 µM
[12] = second compound 0.1 µM, first compound 10 µM
[13] = second compound 0.316 µM, first compound 0.0316 µM
[14] = second compound 0.316 µM, first compound 0.1 µM
[15] = second compound 0.316 µM, first compound 0.316 µM
[16] = second compound 0.316 µM, first compound 1 µM
[17] = second compound 0.316 µM, first compound 3.16 µM
[18] = second compound 0.316 µM, first compound 10 µM
[19] = second compound 1 µM, first compound 0.0316 µM
[20] = second compound 1 µM, first compound 0.1 µM
[21] = second compound 1 µM, first compound 0.316 µM
[22] = second compound 1 µM, first compound 1 µM
[23] = second compound 1 µM, first compound 3.16 µM
[24] = second compound 1 µM, first compound 10 µM
[25] = second compound 3.16 µM, first compound 0.0316 µM
[26] = second compound 3.16 µM, first compound 0.1 µM
[27] = second compound 3.16 µM, first compound 0.316 µM
[28] = second compound 3.16 µM, first compound 1 µM
[29] = second compound 3.16 µM, first compound 3.16 µM
[30] = second compound 3.16 µM, first compound 10 µM
[31] = second compound 10 µM, first compound 0.0316 µM
[32] = second compound 10 µM, first compound 0.1 µM
[33] = second compound 10 µM, first compound 0.316 µM
[34] = second compound 10 µM, first compound 1 µM
[35] = second compound 10 µM, first compound 3.16 µM
[36] = second compound 10 µM, first compound 10 µM
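Further: spheroids exposed to agents for 7 days before read-out.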
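Wherever viability, T/C is given: luminescence used as surrogate of cell viability.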

CC1(C)CCC(CN2CCN(c3ccc(C(=O)NS(=O)(=O)c4ccc(NCC5CCOCC5)c([N+](=O)[O-])c4)c(Oc4cnc5[nH]ccc5c4)c3)CC2)=C(c2ccc(Cl)cc2)C1 + Cc1nc(NC(=O)N2CCCC2C(N)=O)sc1-c1ccnc(C(C)(C)C(F)(F)F)c1
inactive: viability, T/C [1] 103% | viability, T/C [2] 91.3% | viability, T/C [3] 88.8% | viability, T/C [4] 86% | viability, T/C [5] 104% | viability, T/C [6] 55.1% | viability, T/C [7] 88.9% | viability, T/C [8] 83.6% | viability, T/C [9] 86.4% | viability, T/C [10] 86.8% | viability, T/C [11] 77.8% | viability, T/C [12] 46.5% | viability, T/C [13] 88.2% | viability, T/C [14] 76.8% | viability, T/C [15] 73% | viability, T/C [16] 66.1% | viability, T/C [17] 75.9% | viability, T/C [18] 46% | viability, T/C [19] 86.1% | viability, T/C [20] 73.3% | viability, T/C [21] 72.1% | viability, T/C [22] 61.5% | viability, T/C [23] 69.2% | viability, T/C [24] 52.3% | viability, T/C [25] 57.1% | viability, T/C [26] 71.8% | viability, T/C [27] 63% | viability, T/C [28] 60.5% | viability, T/C [29] 59% | viability, T/C [30] 33.4% | viability, T/C [31] 63.9% | viability, T/C [32] 50.3% | viability, T/C [33] 62.7% | viability, T/C [34] 48.8% | viability, T/C [35] 53% | viability, T/C [36] 38.6%
> 10 µM: IC50 (second compound 0.0316 µM) | IC50 (second compound 1 µM)
8.83 µM: IC50 (second compound 0.1 µM)
2.63 µM: IC50 (second compound 10 µM)
8.52 µM: IC50 (second compound 0.316 µM)
4.67 µM: IC50 (second compound 3.16 µM)

CCCS(=O)(=O)Nc1ccc(F)c(C(=O)c2c[nH]c3ncc(-c4ccc(Cl)cc4)cc23)c1F + Cc1nc(NC(=O)N2CCCC2C(N)=O)sc1-c1ccnc(C(C)(C)C(F)(F)F)c1
6.97 µM: IC50 (second compound 0.0316 µM)
> 10 µM: IC50 (second compound 0.1 µM) | IC50 (second compound 3.16 µM)
8.25 µM: IC50 (second compound 0.316 µM)
6.02 µM: IC50 (second compound 1 µM)
4.47 µM: IC50 (second compound 10 µM)
inactive: viability, T/C [1] 80.2% | viability, T/C [2] 82% | viability, T/C [3] 101% | viability, T/C [4] 102% | viability, T/C [5] 105% | viability, T/C [6] 29.8% | viability, T/C [7] 95.7% | viability, T/C [8] 72% | viability, T/C [9] 77.2% | viability, T/C [10] 80% | viability, T/C [11] 117% | viability, T/C [12] 60.3% | viability, T/C [13] 63% | viability, T/C [14] 81.2% | viability, T/C [15] 68.7% | viability, T/C [16] 91.7% | viability, T/C [17] 88.4% | viability, T/C [18] 44.3% | viability, T/C [19] 78.2% | viability, T/C [20] 69.1% | viability, T/C [21] 74% | viability, T/C [22] 74.8% | viability, T/C [23] 66.3% | viability, T/C [24] 36.6% | viability, T/C [25] 50.5% | viability, T/C [26] 56.5% | viability, T/C [27] 60.3% | viability, T/C [28] 65.6% | viability, T/C [29] 71.4% | viability, T/C [30] 61.4% | viability, T/C [31] 59.7% | viability, T/C [32] 46.9% | viability, T/C [33] 69.2% | viability, T/C [34] 49.6% | viability, T/C [35] 65.1% | viability, T/C [36] 31.1%

C[C@@H](NC(=O)c1ncnc(N)c1Cl)c1ncc(C(=O)Nc2cc(C(F)(F)F)c(Cl)cn2)s1 + Cc1nc(NC(=O)N2CCCC2C(N)=O)sc1-c1ccnc(C(C)(C)C(F)(F)F)c1
> 10 µM: IC50 (second compound 0.0316 µM) | IC50 (second compound 0.1 µM) | IC50 (second compound 0.316 µM) | IC50 (second compound 1 µM) | IC50 (second compound 3.16 µM) | IC50 (second compound 10 µM)
inactive: viability, T/C [1] 87.1% | viability, T/C [2] 88.3% | viability, T/C [3] 84.6% | viability, T/C [4] 105% | viability, T/C [5] 94.2% | viability, T/C [6] 100% | viability, T/C [7] 105% | viability, T/C [8] 77.1% | viability, T/C [9] 85.4% | viability, T/C [10] 96.7% | viability, T/C [11] 98.3% | viability, T/C [12] 97.6% | viability, T/C [13] 65.6% | viability, T/C [14] 100% | viability, T/C [15] 68% | viability, T/C [16] 99.7% | viability, T/C [17] 89.7% | viability, T/C [18] 78.7% | viability, T/C [19] 72.8% | viability, T/C [20] 80.4% | viability, T/C [21] 79.6% | viability, T/C [22] 70.1% | viability, T/C [23] 96.6% | viability, T/C [24] 76% | viability, T/C [25] 55% | viability, T/C [26] 71% | viability, T/C [27] 71.9% | viability, T/C [28] 74% | viability, T/C [29] 69.4% | viability, T/C [30] 68.2% | viability, T/C [31] 56.4% | viability, T/C [32] 59.9% | viability, T/C [33] 62.1% | viability, T/C [34] 54% | viability, T/C [35] 61.8% | viability, T/C [36] 54.5%
